The values that follow come from patent publication US9034886B2, “4-aminoquinazoline derivatives and uses thereof” (Shanghai Institute of Pharmaceutical Industry, priority 2011, dated 2015).

For series [1], the system named is Jurkat E6-1 human T-cell lymphoma. The series can be described thus: In vitro anti-proliferative effect, CCK-8 method, Jurkat E6-1. Type of series: cell-based. The note with it: Homo sapiens, Jurkat E6.1. The procedure, abridged:
(§1)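 Each compound is applied at 100 μM and at 10 μM. Inhibition percentages come from the CCK-8 method.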
(Tetrazolium assays rely on reduction of a dye to a coloured formazan, in cell work by metabolically active cells.)

Series [2] has as its system PANC-1 human pancreatic cancer cells. As to the kind of experiment: In vitro anti-proliferative effect, CCK-8 method, PANC-1. Type of series: cell-based. The note with it: Homo sapiens, PANC-1. The method in brief: as §1
The test system of series [3] is Hut78 T lymphocytic leukemia cells. As to the kind of experiment: In vitro anti-proliferative effect, CCK-8 method, Hut78. Type of series: cell-based. The note with it: Homo sapiens, HuT78, read-out: Hut-78 (inhibition %). The procedure, abridged:
(§2)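 Percent growth inhibition, measured with CCK-8, in Hut78 and K562 leukemia cells at two compound concentrations, 10 μM and 100 μM.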

The next series has as its system HDACs. As to the kind of experiment: In vitro inhibition of HDACs (HDAC Inhibitor Drug Screening Kit, Biovision K340-100). In kind it is biochemical. The note with it: for inhibitory activity on HDACs compared with MS-275: concentrations of 2 mM, 200 μM, and 40 μM. The procedure:
The in vitro inhibitory activities of the compounds towards HDACs were tested according to the instructions in the HDAC Inhibitor Drug Screening Kit (Biovision/Catalog #K340-100).
(1) The compounds to be tested were each individually prepared as 2 mM, 200 μM and 40 μM solutions and their inhibitory activities at these concentrations were tested.

The subject of series [4] is K562 human chronic myelogenous leukemia cells. As to the kind of experiment: In vitro anti-proliferative effect, CCK-8 method, K562. In kind it is cell-based. The note with it: Homo sapiens, K562. The method in brief: as §2
The subject of series [5] is Hep3B2.1-7 human liver cancer cells. The series can be described thus: In vitro anti-proliferative effect, CCK-8 method, Hep3B. Type of series: cell-based. The conditions noted are these: Homo sapiens, Hep3B cell strain, CCK-8 method; for inhibition at 10 µM: compound at 10 μM; for inhibition at 100 µM: compound at 100 μM. The method in brief: as §1
In series [6] the test system is PC-3 human prostate cancer. As to the kind of experiment: In vitro anti-proliferative effect, CCK-8 method, PC-3. Type of series: cell-based. The note with it: Homo sapiens, PC-3 cell strain, CCK-8 method; for inhibition at 10 µM: compound at 10 μM; for inhibition at 100 µM: compound at 100 μM. The method in brief:
as §1

The test system of series [7] is Colo320 human colorectal cancer cell lines. The series can be described thus: In vitro anti-proliferative effect, CCK-8 method, Colo320. Type of series: cell-based. The conditions noted are these: Homo sapiens, COLO 320, Colo320 cell strain, CCK-8 method; for inhibition at 10 µM: compound at 10 μM; for inhibition at 100 µM: compound at 100 μM. The procedure, abridged:
as §1

The subject of series [8] is A549 human lung cancer cells. As to the kind of experiment: In vitro anti-proliferative effect, CCK-8 method, A549. In kind it is cell-based. The note with it: Homo sapiens, A549. The method in brief: as §1
Series [9] can be described thus: Maximum tolerance dose through intragastrical administration. Type of series: in vivo. The conditions noted are these: mice, administrated intragastrically. The procedure:
Forty ICR mice, half female and half male, weighing […] were divided into four groups, 10 mice in each group. After the mice were fasted for 6 h, the compound to be tested was administrated intragastrically to each group at a volume of 0.3 ml/10 g by using a sterile plastic syringe. General physical signs and the deaths of the animals were record at 1, 2 and 4 h after the administration. The animals were then observed continuously for 14 days and their weights, physical signs and deaths were observed and recorded every day. Dead animals were dissected to see if there was any visible pathological change in the animal's viscera and pathological examination was performed on suspicious tissues and organs. A part of the experimental results is as follows.

Series [10] has as its system MDA-MB-435s human breast cancer cells. As to the kind of experiment: In vitro anti-proliferative effect, CCK-8 method, MDA-MB-435s. Type of series: cell-based. The conditions noted are these: Homo sapiens, MDA-MB-435S. The procedure, abridged:
as §1

In the next series the target is HDAC1 (Homo sapiens (Human), UniProt Q13547). As to the kind of experiment: In vitro inhibition of subtype HDAC1 (HDAC1 Inhibitor Drug Screening Kit, Biovision). In kind it is biochemical. The conditions noted are these: read-out: % Inhibition towards HDAC1. On the procedure:
The in vitro inhibitory activities of the compounds towards the subtype HDAC1 were tested according to the instructions in the HDAC1 Inhibitor Drug Screening Kit (Biovision).
(1) The compounds to be tested were each individually prepared as 10 μM and 1 μM solutions and their inhibitory activities at these concentrations were tested.
Each dilution sample was placed in two wells and the enzyme inhibition IC50 of the compound was tested.

One may read the inhibition as the change of the read-out against control, counted positive when it falls. What is called IC50 is the concentration needed to halve the response being measured.

Sequence of HDAC1 (Q13547 whole entry): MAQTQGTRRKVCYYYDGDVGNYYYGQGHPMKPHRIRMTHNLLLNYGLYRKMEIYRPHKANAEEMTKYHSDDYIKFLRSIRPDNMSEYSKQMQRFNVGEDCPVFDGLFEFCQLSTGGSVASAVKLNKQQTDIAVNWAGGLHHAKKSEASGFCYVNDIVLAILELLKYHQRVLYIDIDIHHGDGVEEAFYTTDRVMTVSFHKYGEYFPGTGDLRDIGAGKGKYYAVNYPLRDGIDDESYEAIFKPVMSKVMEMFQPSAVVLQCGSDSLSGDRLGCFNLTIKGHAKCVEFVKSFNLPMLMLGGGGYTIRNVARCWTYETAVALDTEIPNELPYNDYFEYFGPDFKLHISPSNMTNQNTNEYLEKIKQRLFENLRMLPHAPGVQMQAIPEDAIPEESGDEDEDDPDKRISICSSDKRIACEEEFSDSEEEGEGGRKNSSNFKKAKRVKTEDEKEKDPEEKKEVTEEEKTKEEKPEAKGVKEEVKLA

In the case of `Nc1cnccc1NC(=O)c1ccc(Nc2ncnc3ccccc23)cc1` [Compound V-2], the inhibition at 10 µM was 58.5% in series [1]; 20.7% in [2]; 63.4% in series [3]; 21% in series [4]; 31.2% in [5]; 90.3% in [6]. Besides, the inhibition at 10 µM turned out to be 39.6% in [7], 65.6% in series [8] and 35.8% in [10]. Also, the inhibition at 100 µM in series [1] was determined as 85.9%; in series [2] it was 74.1%; in series [3], 82.8%; in series [4], 64.4%; in series [5] it was 53.6%; in [6], 92.4%. Moreover, the figures for the inhibition at 100 µM in [7], in [8] and in [10] were 92.9%, 84.8% and 86.9%, respectively. The “Inhibition percentage (%) towards HDACs” value is listed as 17.6% with HDACs (40 μM), 28.0% in the series on HDACs (200 μM) and 77.1% with HDACs (2 mM). For the same molecule, the maximum tolerance dose result in series [9] is recorded as “over 2000 mg/kg”.

Take `COc1cc2ncnc(Nc3ccc(C(=O)Nc4ccncc4N)cc3)c2cc1OC` [Compound V-4]: the inhibition at 10 µM was 5.4% in [1]; 14.4% in [2]; 66.4% in series [3]; -1.3% in series [4]; -10.2% in series [5]; 5.2% in series [6]. Besides, the results for the inhibition at 10 µM in series [7], in [8] and in series [10] were 7.1%, -43.9% and -20.7%, respectively. The inhibition at 100 µM is 23.7% in [1]; 11.9% in [2]; 95.8% in series [3]; 38.1% in [4]; -12.1% in [5]; 15.9% in series [6]. Besides, the values for the inhibition at 100 µM in series [7], in [8] and in [10] were 16.8%, -19.4% and -10.4%, respectively. This molecule also displayed a 50% inhibitory concentration (IC50) with HDACs of 3.29 µM. Also, the “inhibitory activity according to in vitro IC50 value against HDACs compared with MS-275” value with HDACs is recorded as “better inhibitory activities than MS-275”. Also, the “Inhibition percentage (%) towards HDACs” value in the series with HDACs (40 μM) was determined as 36.3%; in the series with HDACs (200 μM) it was 70.3%; in the series with HDACs (2 mM) it was 85.3%. Further, the “inhibitory activity on HDACs compared with MS-275” value with HDACs is listed as “significantly stronger inhibitory activities than MS-275”. Also, in [9], the maximum tolerance dose entry was “over 5000 mg/kg”.

Consider `COc1ccc2ncnc(Nc3ccc(C(=O)Nc4ccccc4N)cc3)c2c1` [Compound V-5, N-(2-aminophenyl)-4-(6-methoxyquinazoline-4-amino)benzamide], for which the inhibition at 10 µM in [1] is 62.2%; in series [2], 10.5%; in series [3], 15%; in series [4], 49.4%; in series [5], 7.3%; in series [6], 0%. Further, the inhibition at 10 µM was 13% in series [7], -44.3% in [8] and -14.3% in series [10]. For the same molecule, the inhibition at 100 µM was 87.9% in series [1]; 45.9% in series [2]; 43.9% in series [3]; 83.2% in series [4]; 66.6% in series [5]; 66.7% in series [6]. For the same molecule, the inhibition at 100 µM is 45.3% in series [7], -13.1% in [8] and 84.1% in series [10]. In the series with HDACs, this molecule gave an IC50 of 7.79 µM. In addition, the results for the “Inhibition percentage (%) towards HDACs” value in the series on HDACs (40 μM), with HDACs (200 μM) and with HDACs (2 mM) were 2.8%, 16.8% and 36.7%, respectively. In addition, in series [9], the maximum tolerance dose result is “over 2000 mg/kg”.

On to `COc1ccc2ncnc(Nc3ccc(C(=O)Nc4cc(F)ccc4N)cc3)c2c1` [Compound V-6, N-(2-amino-5-fluorophenyl)-4-(6-methoxyquinazoline-4-amino)benzamide], for which the inhibition at 10 µM in [1] was 27.2%; in [2], 16.9%; in series [3], 15.5%; in [4], 53.6%; on HDAC1 (10 μM), 50.1%; in series [5], -7%. In addition, the inhibition at 10 µM in [6] was 23.7%; in series [7], -5.5%; in series [8] it was -16.9%; in series [10], 8%. For the same molecule, the inhibition at 100 µM in [1] was found to be 93.3%; in series [2], 19.7%; in [3], 66.6%; in series [4], 87.2%; in series [5], 57.5%; in series [6], 56%. Further, the inhibition at 100 µM in series [7] was found to be 59.2%; in series [8], 45.7%; in series [10] it was 79.1%. This molecule also showed an IC50 with HDACs of 1.83 µM. In addition, in the series on HDACs, the “inhibitory activity according to in vitro IC50 value against HDACs compared with MS-275” value is listed as “better inhibitory activities than MS-275”. Moreover, the “Inhibition percentage (%) towards HDACs” value with HDACs (40 μM) came out at 34.5%; in the series on HDACs (200 μM), 58.0%; in the series with HDACs (2 mM), 87.1%. Also, the “inhibitory activity on HDACs compared with MS-275” value with HDACs is recorded as “significantly stronger inhibitory activities than MS-275”. In addition, at HDAC1 (1 μM), the inhibition at 1 µM is 6.47%. For the same molecule, the maximum tolerance dose entry in series [9] is listed as “over 5000 mg/kg”.

For `CC(=O)Nc1ccc2ncnc(NCc3ccc(C(=O)Nc4ccncc4N)cc3)c2c1` [Compound V-47], the inhibition at 10 µM in series [1] came to 59.4%; in series [2] it was 2.8%; in series [3] it was 9.9%; in series [4] it was 58%; in series [5], 11.2%; in [6] it was 7.2%. For the same molecule, the inhibition at 10 µM in [7] stood at 11%; in series [8] it was 9.4%; in series [10], 21.8%. Moreover, the inhibition at 100 µM in series [1] came out at 76.6%; in series [2], 43%; in series [3] it was 88.3%; in [4], 62.1%; in [5], 19.2%; in [6] it was 12.8%. The figures for the inhibition at 100 µM in series [7], in series [8] and in series [10] were 6%, 8% and 29.2%, respectively. The maximum tolerance dose result in series [9] is “over 5000 mg/kg”.
